Data on two compounds can be found in patent US9974759B2, “Beta 2 adrenoceptor antagonists for treating orthostatic hypotension” (Indiana University Research & Technology Corporation, priority 2013, dated 2018).

“Also recorded” adds a separate entry of the source.

Assay [1] deals with left thoracic vagal nerve. The assay can be described thus: Ambulatory recording of vagal nerve activity (VNA). The conditions noted are these: carvedilol 12 mg twice daily for a week or ICI infusion 7 days; immediately before drug 192.96.
Description: (§1) Eight mongrel dogs (4 male, weighing 20-30 kg) were used in this Example. Left thoracotomy was performed through the first intercostal space for the implantation of a D70-CCTP radiotransmitter manufactured by the Data Sciences International (DSI, St Paul, Minn.). The first pair of bipolar electrodes was inserted beneath the nerve sheath of the left stellate ganglion. A second pair of bipolar leads was attached to the left thoracic vagal nerve at a level of 4 to 5 cm above the aortic arch. The third lead, a catheter with a pressure sensor, was inserted directly into the subclavian artery for blood pressure (BP) recording. The transmitter and ground wires were inserted into a subcutaneous pocket.
(§2) After 2 weeks of recovery, the radiotransmitter was turned on to record nerve signals and BP at baseline. The pre-implantation BP was calibrated against the ambient pressure in the vivarium. […]
(§3) The nerve activities were integrated minute-by-minute. […] The mean BP was also analyzed minute-by-minute during the same period. […] Pearson correlation coefficients between these two nerve activities were calculated. […]
(§4) To determine the relationship between BP, heart rate (HR) and ANS activities, 1-minute and 4-hour averages for each dog were calculated on each day of data collection starting at midnight. Pearson correlation coefficients between SGNA and VNA were also calculated within each 4-hour interval. […]
Another assay has as its system mongrel dogs. The assay is described as follows: Ambulatory monitoring of blood pressure in dogs (radiotransmitter, Protocol 1). The conditions noted are these: for BP response following simultaneous termination of sympathovagal firing and postural change: FIGS. 5A-5I, example dog, baseline drop from 110 mmHg to 80 mmHg; for BP: all eight dogs, random effects model, oral carvedilol 12 mg twice daily for a week, or 7 days of ICI infusion (3.1 μg/kg/hr), baseline 125.60; for percentage of hypotensive episodes (mean systolic pressure <100 mmHg in one min): minute-by-minute data, all dogs, baseline 7.1%.

In the next assay the test system is left stellate ganglion. The assay can be described thus: Ambulatory recording of stellate ganglion nerve activity (SGNA). The conditions noted are these: carvedilol 12 mg twice daily for a week or ICI infusion 7 days; immediately before drug 209.40.
In assay [2] the test system is rat model of orthostatic hypotension. The note with it: no definite beneficial effect shown; cited from earlier work.
In a further assay the test system is humans. The note with it: doses up to 80 mg orally, no continuous BP monitoring; cited from earlier work.

Description for left stellate ganglion: as §1, §2, §3, §4
Description for mongrel dogs: as §1
After 2 weeks of recovery, the radiotransmitter was turned on to record nerve signals and BP at baseline. The pre-implantation BP was calibrated against the ambient pressure in the vivarium. There was a 12-hour daylight cycle in the vivarium staring at 7 AM each day. After the baseline (stellate ganglion nerve activity (SGNA), vagal nerve activity (VNA), and BP) recordings, the dogs were given oral carvedilol, 12 mg twice daily for a week. The drugs were then washed out for a week and baseline recordings were re-collected. […] The pump is designed to empty its contents over 7 days at a rate of 10 μl/hr. Therefore, the infusion rate was 3.1 μg/kg/hr for a 30 kg dog. […] The data collected at days 6-7 of the infusion were used for analyses.
The nerve activities were integrated minute-by-minute. Because BP recordings are prone to motion artifacts, the data of all dogs included in Protocol 1 was manually reviewed and the first 10 noise-free minutes of each hour were selected for analyses. The mean BP was also analyzed minute-by-minute during the same period. The SGNA was plotted against the VNA on an XY graph to visualize the patterns of activation. Pearson correlation coefficients between these two nerve activities were calculated. The data obtained from the manual analyses were subjected to further statistical analyses as described below.
To determine the relationship between BP, heart rate (HR) and ANS activities, 1-minute and 4-hour averages for each dog were calculated on each day of data collection starting at midnight. Pearson correlation coefficients between SGNA and VNA were also calculated within each 4-hour interval. To analyze data from any given individual dog, multiple linear regression with systolic BP as the dependent variable and ANS activities as the independent variables based on 1-minute average data were used. To analyze data from all dogs and the 4-hour average data, a random effects model with dog as the random effect was used with the same dependent and independent variables, plus HR and the Pearson correlation coefficient as additional independent variables. […] A cubic smoothing spline was also used to fit BP versus hour for one dog. Statistical analysis was performed with IBM SPSS Statistics 19 (Armonk, N.Y.) and SAS version 9.3 (SAS Institute Inc., Cary, N.C.).

For the compound `COc1ccccc1OCCNCC(O)COc1cccc2[nH]c3ccccc3c12` (stereo not drawn) [carvedilol], in assay [1], the “iVNA (integrated vagal nerve activity)” value turned out to be 186.68 mV-s. Further, in the assay on mongrel dogs, the “BP response following simultaneous termination of sympathovagal firing and postural change” value is recorded as “drop in BP from 100 mmHg to 80 mmHg; also recorded: followed by hypotension”; the BP is given as 124.8 (95% CI: 116.63 to 132.97) mmHg; the “percentage of hypotensive episodes (mean systolic pressure <100 mmHg in one min)” value is on record as 7.8%. For the same compound, in the assay with left stellate ganglion, the “iSGNA (integrated stellate ganglion nerve activity)” value is reported as 258.47 (95% CI: 207.20 to 309.75) mV-s.

As to `Cc1ccc(OCC(O)C(C)NC(C)C)c2c1CCC2` (stereo not drawn) [ICI-118,551, 3-(isopropylamino)-1-[(7-methyl-4-indanyl)oxy]butan-2-ol], the “iVNA (integrated vagal nerve activity)” value in assay [1] is 220.18 (95% CI: 156.46 to 283.90) mV-s. Further, the “effect on orthostatic symptoms” value in assay [2] is recorded as “had a tendency of improving orthostatic symptoms”. For the same compound, in the assay with mongrel dogs (listed as ICI), the “BP response following simultaneous termination of sympathovagal firing and postural change” value was “no change in BP; also recorded: not followed by hypotension”. Moreover, in the assay with mongrel dogs, the BP was 133.00 (95% CI: 124.85 to 141.14) mmHg and the “percentage of hypotensive episodes (mean systolic pressure <100 mmHg in one min)” value came to 1.3%. Moreover, in the assay on left stellate ganglion, the “iSGNA (integrated stellate ganglion nerve activity)” value is on record as 281.23 (95% CI: 230.30 to 332.16) mV-s. Moreover, the “effect on BP or heart rate” value with humans is “does not alter BP or heart rate”.
